The supplement of paper PMC11061612

What was measured:
ACHN (Kidney Carcinoma) [1] = test: Bliss excess, mean over the matrix (fraction); higher = more synergy
Procedure, shortened: (§1)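 After 24 hours at 37°C and 5% CO2 in 1536-well plates, cells in DMEM/F12 or RPMI plus 10% FBS received two-drug dose matrices for 72 hours. Viability came from CellTiter-Glo 2.0 luminescence and was scaled as inhibition, anchored at 0 by vehicle wells and at 1 by blank wells. Combination Emax is taken as the second-highest inhibition in the matrix, and Bliss excess as the observed combination effect less EA + EB − EA·EB, with EA and EB the single-agent effects.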

[2] = test system: Ca9-22 (Head and Neck Carcinoma); test: as above
Procedure, shortened: as §1

[3] = test system: Caov-4 (Ovarian Carcinoma); test: as above
Procedure, shortened: as §1

D-263MG (Glioblastoma) = test: as above
Procedure, shortened: as §1

[4] = test system: EFM-19 (Breast Carcinoma); test: as above
Procedure, shortened: as §1

[5] = test system: EoL-1-cell (Acute Myeloid Leukemia); test: as above
Procedure, shortened: as §1

[6] = test system: Hs-766T (Pancreatic Carcinoma); test: as above
Procedure, shortened: as §1

[7] = test system: KARPAS-299 (T-Cell Non-Hodgkin's Lymphoma); test: as above
Procedure, shortened: as §1

[8] = test system: MIA-PaCa-2 (Pancreatic Carcinoma); test: as above
Procedure, shortened: as §1

[9] = test system: MLMA (Other Blood Carcinomas); test: as above
Procedure, shortened: as §1

NB69 (Neuroblastoma) = test: as above
Procedure, shortened: as §1

[10] = test system: NCI-H358 (Lung Adenocarcinoma); test: as above
Procedure, shortened: as §1

[11] = test system: PANC-04-03 (Pancreatic Carcinoma); test: as above
Procedure, shortened: as §1

TGW (Neuroblastoma) = test: as above
Procedure, shortened: as §1

TK10 (Kidney Carcinoma) = test: as above
Procedure, shortened: as §1

ACHN (Kidney Carcinoma) [12] = test: combination Emax (second highest fraction inhibited in the dose matrix, 72 h); higher = more inhibition; extreme values may be limits of the assay
Procedure, shortened: as §1

EW-24 (Ewing's Sarcoma) = test: as above
Procedure, shortened: as §1

[13] = test system: KYSE-450 (Esophageal Squamous Cell Carcinoma); test: as above
Procedure, shortened: as §1

[14] = test system: PANC-04-03 (Pancreatic Carcinoma); test: as above
Procedure, shortened: as §1

[15] = test system: RF-48 (B-Cell Non-Hodgkin's Lymphoma); test: as above
Procedure, shortened: as §1
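Wherever Bliss excess, mean over the matrix is given: after 72 h of two-drug dosing.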

Row | Structure (SMILES) | Bliss excess (ACHN (Kidney Carcinoma) [1]) | Bliss excess [2] | Bliss excess [3] | Bliss excess (D-263MG (Glioblastoma)) | Bliss excess [4] | Bliss excess [5] | Bliss excess [6] | Bliss excess [7] | Bliss excess [8] | Bliss excess [9] | Bliss excess (NB69 (Neuroblastoma)) | Bliss excess [10] | Bliss excess [11] | Bliss excess (TGW (Neuroblastoma)) | Bliss excess (TK10 (Kidney Carcinoma)) | combination Emax (ACHN (Kidney Carcinoma) [12]) | combination Emax (EW-24 (Ewing's Sarcoma)) | combination Emax [13] | combination Emax [14] | combination Emax [15]
1 | CN(CCO)CC[C@H](CSc1ccccc1)Nc1ccc(S(=O)(=O)NC(=O)c2ccc(N3CCC([C@@H](O)c4ccccc4-c4ccc(Cl)cc4)CC3)cc2)cc1S(=O)(=O)C(F)(F)F [AZD4320] + Nc1ccn([C@@H]2O[C@H](CO)[C@@H](O)C2(F)F)c(=O)n1 [Gemcitabine] (first compound max 1 µM, 7x7, partner max 0.3 µM) | 0.0947 | 0.0876 | -0.0556 | -0.0625 | 0.0067 | 0.0217 | -0.0777 | 0.0251 | -0.025 | -0.0381 | -0.0203 | -0.0227 | -0.0496 | 0.0257 | 0.0032 | 0.969 | 0.98 | 0.202 | 0.461 | 0.955
2 | COc1cc2ncnc(Nc3ccc(F)c(Cl)c3)c2cc1OCCCN1CCOCC1 [Gefitinib] + CC(C)n1c(=O)n(C)c2cnc3cc(F)c(-c4ccc(OCCCN5CCCCC5)nc4)cc3c21 [AZD1390] (first compound max 10 µM, 7x7, partner max 0.3 µM) | -0.0829 | 0.0579 | -0.0591 | -0.0401 | -0.0722 | -0.0385 | -0.0908 | -0.0218 | -0.0307 | -0.0358 | -0.0615 | -0.0493 | -0.0853 | -0.0438 | -0.0646 | 0.551 | 0.189 | 0.338 | 0.347 | 0.244
3 | COc1cc2c(cc1OCCCCCOc1cc3c(cc1OC)C(=O)N1C=C(C)C[C@H]1C=N3)N=C[C@@H]1CC(C)=CN1C2=O [SG3199] + O=C(c1cc(Cc2n[nH]c(=O)c3ccccc23)ccc1F)N1CCN(C(=O)C2CC2)CC1 [Olaparib] (first compound max 0.001 µM, 7x7, partner max 10 µM) | -0.0192 | -0.0113 | -0.0267 | -0.018 | -0.063 | -0.0348 | -0.0433 | -0.0122 | -0.0415 | -0.0269 | -0.0102 | -0.0353 | -0.046 | -0.0446 | -0.0646 | 0.0891 | 0.196 | 0.0761 | 0.114 | 0.266
